The values that follow are results of earlier work, collected in publication PMC10320121 (Nucleic Acids Research, 2023).

Consider `N#Cc1ccc2[nH]cc(CCCCN3CCN(c4ccc5oc(C(N)=O)cc5c4)CC3)c2c1` [Vilazodone, vilazodone], for which the “oral bioavailability (F)” value was 47.45%.
